Article PMC5321434, “Dihydrobenz[e][1,4]oxazepin-2(3H)-ones, a new anthelmintic chemotype immobilising whipworm and reducing infectivity in vivo” (PLoS Neglected Tropical Diseases, 2017)

Tested on: adult T. muris
Test: Ex vivo adult T. muris automated motility assay (primary/secondary screen at 100 μM and dose-response)
Parameters: species or system Trichuris muris
Details: 100 μM; for COMBINED_SCREEN_ACTIVITY: combined primary and secondary screen minus log fold change in movement, adult T. muris; for PRIMARY_SCREEN_MINUS_LOG_FOLD_CHANGE_MOVEMENT: primary screen
Method: Severe combined immune deficiency (SCID) mice were bred in the Biological Services Facility at the University of Manchester. Both male and female SCID mice were infected with a high dose of 200 infective embryonated T. muris eggs via oral gavage. At day 35 post-infection, groups of 5 mice were killed and their […] colons removed. Guts were opened longitudinally, washed with pre-warmed Roswell Park Memorial Institute (RPMI) 1640 media supplemented with penicillin (500U/ml) and streptomycin (500μg/ml) and adult T. muris worms gently removed using fine forceps. Worms removed from SCID mice were maintained in RPMI-1640 media supplemented with penicillin (500U/ml) and streptomycin (500μg/ml) at approximately 37°C and studied on the same day. Using fine forceps, individual live worms were placed into 96 well plates containing 75μl of RPMI-1640 medium supplemented with penicillin (500U/ml) and streptomycin (500μg/ml) plus 1% final concentration of DMSO or compound dissolved in DMSO. In the primary screen the test compound concentration was 100μM. Plates were then incubated at 37°C, 5% CO2, and motility was analysed after 24 hours. Worm movement was quantified using an automated motility assay. This system gives an estimate of worm movement in each well by thresholding and quantifying pixel intensity variance over time. An earlier version of this system has been previously described. One adult T. muris worm was used per well, with one well per compound in each replicate of the primary screen. The primary screen was repeated each week for a period of four weeks giving four independent biological replicates from separate parasite batches for each compound. Dose-response curves were calculated with the four factor log-logistic model using the R package drc. The primary screen was carried out at 100μM final concentration. Assay plates were assigned unique IDs and statistical analysis was performed without knowledge of compound identities using R scripts. Once hit wells were identified, well/plate positions were mapped to compound identities using DataWarrior [28]. […] Compounds identified as having encouraging activity from the DMSO solution samples were then resynthesized for confirmatory testing.

Row | SMILES | COMBINED_SCREEN_ACTIVITY | PRIMARY_SCREEN_MINUS_LOG_FOLD_CHANGE_MOVEMENT (adult T. muris motility) | SECONDARY_SCREEN_MINUS_LOG_FOLD_CHANGE_MOVEMENT (secondary screen, adult T. muris motility)
1 | CN1C(=O)COCc2cc(Br)ccc21 [Compound 6] | -1.038 | -1.038 | –
2 | Cc1ccc(CN2C(=O)COCc3ccccc32)cc1 [Compound 7] | -0.007203 | -0.007203 | –
3 | Cc1ccccc1-c1cccc2c1COCC(=O)N2C [Compound 8] | -0.9498 | -0.9498 | –
4 | CN1C(=O)COCc2c(-c3cccc(O)c3)cccc21 [Compound 9] | -1.134 | -1.134 | –
5 | CN1C(=O)COCc2cc(-c3cccc(C#N)c3)ccc21 [Compound 10] | -1.704 | -1.704 | –
6 | Cc1ccc(-c2cccc3c2COCC(=O)N3C)cc1C [Compound 11] | -0.1315 | -0.1315 | –
7 | CC(C)N1C(=O)COCc2ccc(-c3ccccc3)cc21 [Compound 12] | 1.691 | 1.691 | –
8 | CC(C)N1C(=O)COCc2ccc(-c3cccnc3)cc21 [Compound 13] | -0.8665 | -0.8665 | –
9 | COc1ccc(CN2C(=O)COCc3ccccc32)cc1 [Compound 14] | -1.77 | -1.77 | –
10 | CN1C(=O)COCc2c(-c3cccc(CO)c3)cccc21 [Compound 15] | -0.7825 | -0.7825 | –
11 | CCCN1C(=O)COCc2cc(Br)ccc21 [Compound 16] | -2.129 | -2.129 | –
12 | CC(C)N1C(=O)COCc2cc(Br)ccc21 [Compound 17] | -0.6442 | -0.6442 | –
13 | CCCN1C(=O)COCc2ccc(Br)cc21 [Compound 18] | -1.618 | -1.618 | –
14 | CC(C)N1C(=O)COCc2ccc(Br)cc21 [Compound 19] | -1.507 | -1.507 | –
15 | CC(C)N1C(=O)COCc2ccc(-c3cnn(C)c3)cc21 [Compound 20] | 0.06851 | 0.06851 | –
16 | O=C1COCc2ccccc2N1Cc1ccccc1Cl [Compound 21] | -1.647 | -1.647 | –
17 | CN1C(=O)COCc2c(-c3ccc(Cl)cc3)cccc21 [Compound 22] | -0.8438 | -0.8438 | –
18 | O=C1COCc2ccccc2N1Cc1cc(F)cc(F)c1 [Compound 23] | -1.442 | -1.442 | –
19 | O=C1COCc2ccc(-c3ccccc3)cc2N1CC1CC1 [Compound 24] | 7.227 | 7.227 | –
20 | O=C1COCc2ccc(-c3cccnc3)cc2N1CC1CC1 [Compound 25] | -1.503 | -1.503 | –
21 | O=C1COCc2cc(Br)ccc2N1CC1CC1 [Compound 26] | -0.588 | -0.588 | –
22 | CN1C(=O)COCc2c(-c3ccc4c(c3)OCO4)cccc21 [Compound 27] | -0.9234 | -0.9234 | –
23 | COCCN1C(=O)COCc2ccc(-c3ccccc3)cc21 [Compound 28] | -0.7597 | -1.727 | 0.2076
24 | CC(C)N1C(=O)COCc2ccc(-c3cccc(F)c3)cc21 [Compound 29] | 1.463 | 1.463 | –

Row | SMILES | COMBINED_SCREEN_ACTIVITY | PRIMARY_SCREEN_MINUS_LOG_FOLD_CHANGE_MOVEMENT (adult T. muris motility) | SECONDARY_SCREEN_MINUS_LOG_FOLD_CHANGE_MOVEMENT (secondary screen, adult T. muris motility)
25 | COCCN1C(=O)COCc2cc(Br)ccc21 [Compound 30] | 0.3958 | 0.3958 | –
26 | COCCN1C(=O)COCc2ccc(Br)cc21 [Compound 31] | -1.486 | -1.486 | –
27 | COc1cc(F)ccc1-c1cccc2c1COCC(=O)N2C [Compound 32] | -1.894 | -1.894 | –
28 | CN1C(=O)COCc2c(-c3ccc(F)c(Cl)c3)cccc21 [Compound 33] | 1.432 | 1.432 | –
29 | CN1C(=O)COCc2c(-c3cc(F)cc(Cl)c3)cccc21 [Compound 34] | -1.392 | -1.392 | –
30 | O=C1COCc2ccc(-c3cccc(F)c3)cc2N1CC1CC1 [Compound 35] | 10.5493 | 10.5493 | –
31 | COCCN1C(=O)COCc2ccc(-c3ccccc3C)cc21 [Compound 36] | -1.658 | -1.658 | –
32 | COCCN1C(=O)COCc2ccc(-c3cccc(O)c3)cc21 [Compound 37] | -1.788 | -1.788 | –
33 | COCCN1C(=O)COCc2ccc(-c3cccc(F)c3)cc21 [Compound 38] | -1.255 | -1.255 | –
34 | CC(C)N1C(=O)COCc2ccc(-c3cc(F)cc(F)c3)cc21 [Compound 39] | 3.736 | 3.736 | –
35 | N#Cc1cccc(-c2ccc3c(c2)N(CC2CC2)C(=O)COC3)c1 [Compound 40] | -0.6738 | -0.6738 | –
36 | O=C1COCc2ccc(-c3cccc(CO)c3)cc2N1CC1CC1 [Compound 41] | -1.108 | -1.108 | –
37 | COc1ccccc1-c1ccc2c(c1)N(CC1CC1)C(=O)COC2 [Compound 42] | 1.209 | 1.209 | –
38 | COc1ccc(-c2ccc3c(c2)N(CC2CC2)C(=O)COC3)cc1 [Compound 43] | 3.877 | 3.877 | –
39 | COc1ccc(-c2ccc3c(c2)N(CC2CC2)C(=O)COC3)cn1 [Compound 44] | -1.021 | -1.021 | –
40 | COCCN1C(=O)COCc2ccc(-c3ccccc3OC)cc21 [Compound 45] | -1.409 | -1.409 | –
41 | COCCN1C(=O)COCc2ccc(-c3ccc(OC)cc3)cc21 [Compound 46] | -1.143 | -1.143 | –
42 | O=C1COCc2ccc(-c3ccc(Cl)cc3)cc2N1CC1CC1 [Compound 47] | 1.5592 | 1.5592 | –
43 | O=C1COCc2ccc(-c3cc(F)cc(F)c3)cc2N1CC1CC1 [Compound 48] | 1.875 | 1.875 | –
44 | O=C1COCc2ccc(-c3ccncc3)cc2N1Cc1ccccc1 [Compound 49] | -0.743 | -0.743 | –
45 | O=C1COCc2ccc(-c3cccnc3)cc2N1Cc1ccccc1 [Compound 50] | 0.07509 | 0.07509 | –
46 | O=C1COCc2cc(-c3cccnc3)ccc2N1Cc1ccccc1 [Compound 51] | -0.6528 | -0.6528 | –
47 | O=C1COCc2cc(-c3ccncc3)ccc2N1Cc1ccccc1 [Compound 52] | 0.9757 | 0.9757 | –
48 | COCCN1C(=O)COCc2ccc(-c3ccc(Cl)cc3)cc21 [Compound 53] | -0.5764 | -0.5764 | –
